# Assay results reported in the supplement of paper PMC7840683.
# ± gives the standard deviation of the averaged measurements.
# Test system: HepaRG
# Assay: LDH release cytotoxicity, % of total lysis control; higher = more cytotoxic
# Conditions: 48 h
# How it was run: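 The CytoTox-ONE kit was used to read LDH in 50 µL spent medium as resorufin fluorescence on a Tecan Safire, with 0.1% Triton X added to total lysis wells. Beforehand, single-lot HepaRG cells on collagen I-coated 96-well plates had been exposed in duplicate for 48 h to eight-point half-log series (top 100 µM) in serum-free induction medium containing 0.5% DMSO. Percent cytotoxicity was normalized against on-plate vehicle and total lysis controls and averaged over duplicates.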
SMILES,LDH release cytotoxicity (0.03162 µM) [%],LDH release cytotoxicity (0.1 µM) [%],LDH release cytotoxicity (0.3162278 µM) [%],LDH release cytotoxicity (1 µM) [%],LDH release cytotoxicity (3.16228 µM) [%],LDH release cytotoxicity (10 µM) [%],LDH release cytotoxicity (31.6228 µM) [%],LDH release cytotoxicity (100 µM) [%],LDH release cytotoxicity (0.031623 µM) [%],LDH release cytotoxicity (0.316228 µM) [%],LDH release cytotoxicity (0.031939 µM) [%],LDH release cytotoxicity (0.101 µM) [%],LDH release cytotoxicity (0.31939 µM) [%],LDH release cytotoxicity (1.01 µM) [%],LDH release cytotoxicity (3.1939004 µM) [%],LDH release cytotoxicity (10.1 µM) [%],LDH release cytotoxicity (31.939 µM) [%],LDH release cytotoxicity (101 µM) [%]
O=C(Nc1ccccc1)Nc1cnns1 [Thidiazuron],-1.24 ± 0.048,-0.715 ± 0.86,-0.562 ± 0.16,-0.873 ± 0.82,-1.15 ± 0.018,-0.652 ± 1.3,-0.0499 ± 1.6,17.6 ± 3.5,,,,,,,,,,
CCN(CC)C(=O)SCc1ccc(Cl)cc1 [Thiobencarb],-1.69 ± 0.22,-1.48 ± 0.59,-1.6 ± 2.2,-2.11 ± 1.5,-1.17 ± 1,-1.78 ± 1.8,-1.01 ± 1.6,2.18 ± 1.2,,,,,,,,,,
CSC(C)=NOC(=O)N(C)SN(C)C(=O)ON=C(C)SC [Thiodicarb],0.264 ± 0.45,0.37 ± 0.55,-0.268 ± 0.33,0.546 ± 0.75,0.811 ± 0.23,1.07 ± 0.71,1.06 ± 0.2,1.18 ± 0.48,,,,,,,,,,
COC(=O)NC(=S)Nc1ccccc1NC(=S)NC(=O)OC [Thiophanate-methyl],-1.04 ± 0.2,-0.552 ± 0.3,-0.928 ± 0.03,-1.83 ± 0.058,-0.882 ± 0.41,0.238 ± 0.4,0.796 ± 0.9,8.47 ± 0.31,,,,,,,,,,
CN(C)C(=S)SSC(=S)N(C)C [Thiram],-1.63 ± 0.73,-2.1 ± 1.1,-2.29 ± 0.55,-1.46 ± 0.3,-2.28 ± 0.41,-1.86 ± 0.66,-1.13 ± 0.084,2.802 ± 0.022,,,,,,,,,,
Cc1ccc(C(C)C)c(O)c1 [Thymol],-0.805 ± 1.1,-0.378 ± 0.63,-1.08 ± 0.33,-0.734 ± 0.81,-1.25 ± 0.71,-0.124 ± 0.09,0.381 ± 0.15,1.26 ± 0.35,,,,,,,,,,
O=C(O)Cc1cc(I)c(Oc2ccc(O)c(I)c2)c(I)c1 [Tiratricol],1.48 ± 0.13,1.09 ± 1.1,1.5 ± 1.1,0.13 ± 0.074,0.965 ± 0.74,0.402 ± 0.0063,-0.312 ± 0.0079,21.5 ± 18,,,,,,,,,,
Cc1ccc(S(=O)(=O)NC(=O)NN2CCCCCC2)cc1 [Tolazamide],-1.21 ± 0.35,-1.21 ± 0.45,-1.26 ± 0.85,-1.16 ± 0.26,-0.648 ± 0.45,-0.378 ± 0.45,-0.0919 ± 0.11,1.58 ± 1.5,,,,,,,,,,
"Cc1ccc(N=C=O)cc1N=C=O [Toluene 2,4-diisocyanate]",-1.18 ± 0.59,-1.26 ± 0.15,-1.96 ± 0.45,-1.55 ± 0.2,-1.52 ± 0.076,-0.759 ± 0.27,4.408 ± 0.042,11.5 ± 1.5,,,,,,,,,,
CCON=C(CC)C1C(=O)CC(c2c(C)cc(C)cc2C)CC1=O (configuration not stated) [Tralkoxydim],-1.61 ± 1.5,-2.54 ± 0.76,-2.84 ± 0.85,-1.69 ± 0.41,-3.18 ± 0.7,-2.04 ± 0.19,-1.88 ± 0.12,-0.758 ± 0.81,,,,,,,,,,
NC(=O)Cn1c(=O)cc(CCN2CCN(c3nccc4sccc34)CC2)c2ccc(F)cc21 [Trelanserin],-2.76 ± 0.59,-2.72 ± 0.22,-2.6 ± 0.45,-2.79 ± 0.15,-2.49 ± 0.9,-3.23 ± 0.63,-3.19 ± 0.31,4.59 ± 0.19,,,,,,,,,,
CC(C)N(C(=O)SCC(Cl)=C(Cl)Cl)C(C)C [Tri-allate],-0.887 ± 0.62,-0.771 ± 0.47,-0.223 ± 0.71,-0.601 ± 0.42,-0.0707 ± 0.93,-0.765 ± 0.52,1.13 ± 1.9,1.48 ± 0.1,,,,,,,,,,
CCCCCCCCOC(=O)c1ccc(C(=O)OCCCCCCCC)c(C(=O)OCCCCCCCC)c1 [Tri-n-octyl trimellitate],,-3.02 ± 1.1,,-1.71 ± 0.9,-2.25 ± 0.55,-2.21 ± 0.31,-0.9931 ± 0.0017,1.54 ± 0.94,-2.2 ± 0.31,-2.45 ± 0.77,,,,,,,,
CC(=O)OCC(COC(C)=O)OC(C)=O [Triacetin],-0.962 ± 0.12,-3.22 ± 0.49,-1.81 ± 0.69,-1.13 ± 0.65,-1.14 ± 0.036,-0.506 ± 0.1,0.136 ± 0.76,0.128 ± 0.77,,,,,,,,,,
CC(C)(C)C(=O)C(Oc1ccc(Cl)cc1)n1cncn1 (configuration not stated) [Triadimefon],,,,,,,,,,,-0.92 ± 0.21,-0.0413 ± 0.61,-0.707 ± 0.2,-0.437 ± 0.008,0.192 ± 0.53,-0.0819 ± 0.64,0.1 ± 0.59,0.544 ± 0.74
CC(C)(C)C(O)C(Oc1ccc(Cl)cc1)n1cncn1 (configuration not stated) [Triadimenol],-1.62 ± 0.58,-2.06 ± 0.53,-1.64 ± 1.5,-1.25 ± 0.42,-1.3 ± 0.73,-0.0607 ± 0.57,-0.253 ± 0.65,0.57 ± 0.18,,,,,,,,,,
CC12C=CC(=O)C=C1CCC1C3CC(O)C(O)(C(=O)CO)C3(C)CC(O)C12F (configuration not stated) [Triamcinolone],-1.85 ± 0.34,-0.492 ± 0.35,-1.39 ± 0.53,-1.34 ± 0.22,-0.853 ± 0.06,-0.509 ± 0.53,-0.546 ± 0.2,2.9 ± 0.79,,,,,,,,,,
CCCCSP(=O)(SCCCC)SCCCC [Tribufos],-1.39 ± 0.84,-0.774 ± 0.82,-1.31 ± 0.24,-1.25 ± 0.2,-0.815 ± 0.25,-0.0795 ± 0.058,-0.648 ± 0.29,0.564 ± 0.25,,,,,,,,,,
CCCCN(CCCC)CCCC [Tributylamine],-2.12 ± 0.98,-1.33 ± 1.8,-2.67 ± 0.73,-2.57 ± 1,-2.21 ± 0.52,-2.383 ± 0.0034,-2.97 ± 0.18,3.29 ± 1.9,,,,,,,,,,
